System: neurons induced to differentiate from SCN1A gene deficient human iPS cells
Assay: Test for measuring hyperexcitation suppression activity (spontaneous calcium oscillation frequency)
Assay type: cell-based
Details: Neuron; for inhibition at 100 µM / inhibition at 10 µM / inhibition at 1 µM / inhibition at 0.1 µM: Homo sapiens, read-out: inhibition rate; for IC50: SCN1A gene deficient human iPS cell-derived neurons, FLIPR Calcium 6, FDSS7000EX, read-out: IC50 (50% inhibitory concentration, frequency of spontaneous calcium oscillation)
Description: Test for Measuring Hyperexcitation Suppression Activity Using Neurons Induced to Differentiate from SCN1A Gene Deficient Human iPS Cells
(1) Induction of Differentiation from Human iPS cells to Neurons
Half of the culture solution was exchanged once every 3 to 4 days.
(2) Fluorescent Calcium Probe Treatment, Addition of Compound, and Evaluation of Intracellular Calcium Concentration
Half of the culture solution was removed on day 60 from induction of differentiation or thereafter. A medium for measurement comprising a fluorescent calcium probe (Molecular Device, product name: FLIPR Calcium 6 Assay Bulk Kit, cat #R8191) was added at an amount equal to the remaining medium. The culture was left standing for 30 minutes and subjected to measurement.
The test compounds were serially diluted with a dimethyl sulfoxide (DMSO) solution so that the final concentration would be 0.1 to 100 μM to prepare a concentrate with a concentration that is 6-fold of the final concentration.
The intensity of fluorescence of a calcium probe was measured over time with FDSS7000EX (Hamamatsu Photonics) to evaluate the change in intracellular calcium concentrations. First, the intensity of fluorescence was measured for 2 minutes. The compound solutions were then added using FDSS7000EX for an additional 8 minute measurement of fluorescence intensity. The frequency of spontaneous calcium oscillation was quantified as an indicator of nerve excitation. With the frequency for 2 minutes before the addition of the compound solutions as 100%, the ratio of frequency for the last 2 minutes after addition of the compound solutions was calculated.

Nc1ccc2nc(Nc3cccnc3)n(-c3ccccc3)c(=O)c2c1 [Example 177]
inhibition at 100 µM: 100%

O=c1c2cc(Cl)ccc2nc(Nc2ccc(F)cn2)n1-c1ccccc1 [Example 25]
inhibition at 10 µM: 82%

O=c1c2cc(Cl)ccc2nc(Nc2cncnc2)n1-c1ccccc1 [Example 6]
IC50: 0.4 µM

Cc1ccccc1-n1c(Nc2cccnc2)nc2c(F)cccc2c1=O [Example 122]
inhibition at 1 µM: 61%

O=c1c2cc(Cl)ccc2nc(Nc2cccnn2)n1-c1ccccc1 [Example 9]
IC50: 0.6 µM

CN1CC[C@@H](n2c(Nc3cccnc3)nc3ccccc3c2=O)C1 [Example 96]
inhibition at 100 µM: 100%

O=c1c2cc(Cl)ccc2nc(Nc2ncccn2)n1-c1ccccc1 [Example 7]
IC50: 6.5 µM

O=c1c2ccccc2nc(Nc2ccn3ccnc3c2)n1-c1ccccc1 [Example 70]
inhibition at 1 µM: 58%

Cc1cccnc1Nc1nc2ccc(F)cc2c(=O)n1-c1ccccc1 [Example 136]
inhibition at 100 µM: 5%

Cc1cncc(Nc2nc3ccc(F)cc3c(=O)n2-c2ccccc2)c1 [Example 27]
inhibition at 1 µM: 37%

Cn1cnc2ccc(Nc3nc4ccccc4c(=O)n3-c3ccccc3)cc21 [Example 2, 2-((1-methyl-1H-benzo[d]imidazol-6-yl)amino)-3-phenylquinazolin-4(3H)-one]
inhibition at 10 µM: 57%

O=c1c2cc(F)ccc2nc(Nc2cccnc2)n1-c1cccc(Cl)c1 [Example 134]
inhibition at 1 µM: 56%

COc1ccc(Nc2nc3ccc(F)cc3c(=O)n2-c2ccccc2)nc1 [Example 149]
inhibition at 10 µM: 32%

O=c1c2cc(F)ccc2nc(Nc2cccnc2)n1C1CCCC1 [Example 60]
inhibition at 10 µM: 100%

CN1CCC[C@H](n2c(Nc3cccnc3)nc3ccccc3c2=O)C1 [Example 71]
inhibition at 1 µM: 51%

O=c1c2cc(Cl)ccc2nc(Nc2ccc3nccnc3c2)n1-c1ccccc1 [Example 5]
IC50: 6.1 µM

O=c1c2cc(F)ccc2nc(Nc2cccc(F)n2)n1-c1ccccc1 [Example 129]
inhibition at 1 µM: 50%

CN1CC[C@H](n2c(Nc3cccnc3)nc3ccccc3c2=O)C1 [Example 77]
inhibition at 10 µM: 26%

Cn1ncc2ccc(Nc3nc4ccccc4c(=O)n3-c3ccccc3)cc21 [Example 54, 2-((1-methyl-1H-indazol-6-yl)amino)-3-phenylquinazolin-4(3H)-one]
inhibition at 1 µM: 95%

O=c1c2ccccc2nc(Nc2cccc3cnoc23)n1-c1ccccc1 [Example 67]
inhibition at 10 µM: 100%

Cc1ccc2c(=O)n(-c3ccccc3)c(Nc3cccnc3)nc2c1 [Example 86]
inhibition at 100 µM: 31%

O=c1c2cc(F)ccc2nc(Nc2csc(Cl)c2)n1-c1ccccc1 [Example 209]
IC50: > 100 µM

Cc1cccnc1Nc1nc2ccc(Cl)cc2c(=O)n1-c1ccccc1 [Example 26]
inhibition at 1 µM: 23%

O=c1c2cc(F)ccc2nc(Nc2ccncc2)n1-c1ccccc1 [Example 131]
inhibition at 10 µM: 100%

O=c1c2cc(F)ccc2nc(Nc2cncc(Cl)c2)n1-c1ccccc1 [Example 45, 2-((5-chloropyridin-3-yl)amino)-6-fluoro-3-phenylquinazolin-4(3H)-one]
inhibition at 1 µM: 100%

O=c1c2ccccc2nc(Nc2cccn3cncc23)n1-c1ccccc1 [Example 69, 2-(imidazo[1,5-a]pyridin-8-ylamino)-3-phenylquinazolin-4(3H)-one]
inhibition at 0.1 µM: 39%

CN1C[C@H]2CC[C@@H](C1)[C@@H]2n1c(Nc2cccnc2)nc2ccc(F)cc2c1=O [Example 208]
IC50: > 100 µM

O=c1c2cc(F)ccc2nc(Nc2cccnc2)n1-c1cccnc1 [Example 35, 6-fluoro-3-(pyridin-3-yl)-2-(pyridin-3-ylamino)quinazolin-4(3H)-one]
inhibition at 1 µM: 88%

Cc1noc(C)c1-n1c(Nc2cccnc2)nc2ccc(F)cc2c1=O [Example 195]
IC50: > 10 µM

O=c1c2ccccc2nc(Nc2ccc3cnoc3c2)n1-c1ccccc1 [Example 94]
inhibition at 1 µM: 27%

N#Cc1ccc2nc(Nc3cncc(F)c3)n(-c3ccccc3F)c(=O)c2c1 [Example 113, 3-(2-fluorophenyl)-2-((5-fluoropyridin-3-yl)amino)-4-oxo-3,4-dihydroquinazoline-6-carbonitrile]
inhibition at 1 µM: 91%

O=c1c2cc(F)ccc2nc(Nc2cccnc2)n1CCO [Example 173]
inhibition at 100 µM: 6%

Cn1cnc2c(Nc3nc4ccccc4c(=O)n3-c3ccccc3)cccc21 [Example 93]
inhibition at 10 µM: 53%

O=c1c2cc(F)ccc2nc(Nc2cccnc2)n1Cc1ccccc1 [Example 151]
inhibition at 10 µM: 2%

O=c1c2cc(F)ccc2nc(Nc2cccnc2)n1-c1ccsc1 [Example 161]
inhibition at 1 µM: 35%

O=c1c2cc(F)ccc2nc(Nc2cccnc2)n1C1(c2ccccc2)CNC1 [Example 175]
inhibition at 10 µM: 25%

O=c1c2cc(F)ccc2nc(Nc2ccnc(F)c2)n1-c1ccccc1 [Example 141, 6-fluoro-2-((2-fluoropyridin-4-yl)amino)-3-phenylquinazolin-4(3H)-one]
inhibition at 1 µM: 97%

Cc1cccc(Nc2nc3ccc(F)cc3c(=O)n2-c2ccccc2)n1 [Example 138]
inhibition at 1 µM: 70%

O=c1c2cc(F)ccc2nc(Nc2ccc(F)cn2)n1-c1ccccc1 [Example 128]
inhibition at 1 µM: 69%

O=c1c2ccccc2nc(Nc2cccnc2)n1C12CCN(CC1)CC2 [Example 119]
inhibition at 1 µM: 20%

COc1cccc(Nc2nc3ccc(F)cc3c(=O)n2-c2ccccc2)n1 [Example 130]
inhibition at 1 µM: 44%

Cc1ccccc1-n1c(Nc2cccnc2)nc2ccc(S(C)(=O)=O)cc2c1=O [Example 214]
IC50: > 100 µM

COc1ncccc1Nc1nc2ccc(Cl)cc2c(=O)n1-c1ccccc1 [Example 10, 6-chloro-2-((2-methoxypyridin-3-yl)amino)-3-phenylquinazolin-4(3H)-one]
IC50: 0.3 µM

O=c1c2cc(F)ccc2nc(Nc2cccnc2)n1C12CCN(CC1)CC2 [Example 72]
inhibition at 10 µM: 100%

COc1ccc2nc(Nc3cccnc3)n(-c3ccccc3)c(=O)c2c1 [Example 13]
inhibition at 100 µM: 20%

O=c1c2cc(F)ccc2nc(Nc2cccnc2)n1C1CCC(F)(F)CC1 [Example 62]
inhibition at 1 µM: 43%

COc1cnccc1Nc1nc2ccc(F)cc2c(=O)n1-c1ccccc1 [Example 144]
inhibition at 100 µM: 16%

O=c1c2cc(F)ccc2nc(Nc2cccnc2)n1C1CCCCC1 [Example 61]
inhibition at 10 µM: 79%

Cc1nn(C)c(C)c1-n1c(Nc2cccnc2)nc2ccc(F)cc2c1=O [Example 154]
inhibition at 10 µM: 98%

Cc1cc(Nc2nc3ccc(F)cc3c(=O)n2-c2ccccc2)ccn1 [Example 139]
inhibition at 10 µM: 100%

O=c1c2ccccc2nc(Nc2ccc3cncn3c2)n1-c1ccccc1 [Example 68]
inhibition at 10 µM: 100%

CN(C)c1cncc(Nc2nc3ccc(F)cc3c(=O)n2-c2ccccc2)c1 [Example 216]
IC50: > 100 µM

O=c1c2cc(F)ccc2nc(Nc2cccnn2)n1-c1ccccc1 [Example 18]
IC50: 0.8 µM

Cc1ccc(Nc2nc3ccc(F)cc3c(=O)n2-c2ccccc2)cn1 [Example 30]
inhibition at 1 µM: 67%

CN(C)c1cccc(-n2c(Nc3cccnc3)nc3ccc(F)cc3c2=O)c1 [Example 181]
inhibition at 1 µM: 73%

N#Cc1ccc2nc(Nc3cncc(F)c3)n(-c3ccccc3)c(=O)c2c1 [Example 112, 2-((5-fluoropyridin-3-yl)amino)-4-oxo-3-phenyl-3,4-dihydroquinazoline-6-carbonitrile]
inhibition at 0.1 µM: 32%

O=c1c2cc(Cl)ccc2nc(Nc2cnccc2C(F)(F)F)n1-c1ccccc1 [Example 11]
IC50: 5.8 µM

O=c1c2cc(F)ccc2nc(Nc2cccnc2)n1C1(c2ccccc2)CCC1 [Example 205]
IC50: > 10 µM

Cn1cc(Nc2nc3ccc(Cl)cc3c(=O)n2-c2ccccc2)cn1 [Example 186]
inhibition at 10 µM: 100%

COc1ccc(-n2c(Nc3cccnc3)nc3ccc(C#N)cc3c2=O)c(C)c1 [Example 102, 3-(4-methoxy-2-methylphenyl)-4-oxo-2-(pyridin-3-ylamino)-3,4-dihydroquinazoline-6-carbonitrile]
inhibition at 10 µM: 92%

O=c1c2cc(F)ccc2nc(Nc2cccnc2)n1CCC(F)(F)F [Example 171]
inhibition at 100 µM: 100%

Cc1cnccc1Nc1nc2ccc(F)cc2c(=O)n1-c1ccccc1 [Example 132]
inhibition at 1 µM: 38%

O=c1c2cc(F)ccc2nc(Nc2cncc(F)c2)n1-c1ccccc1F [Example 111, 6-fluoro-3-(2-fluorophenyl)-2-((5-fluoropyridin-3-yl)amino)quinazolin-4(3H)-one]
inhibition at 0.1 µM: 35%

O=c1c2cnccc2nc(Nc2cccnc2)n1-c1ccccc1 [Example 189]
IC50: > 10 µM

CCc1ccc(Nc2nc3ccc(F)cc3c(=O)n2-c2ccccc2)cn1 [Example 50]
inhibition at 10 µM: 100%

Cc1nccc(Nc2nc3ccc(Cl)cc3c(=O)n2-c2ccccc2)n1 [Example 36]
inhibition at 10 µM: 32%

COc1ccc2c(=O)n(-c3ccccc3)c(Nc3cccnc3)nc2c1 [Example 225]
IC50: > 100 µM

CS(=O)(=O)Nc1ccc2nc(Nc3cccnc3)n(-c3ccccc3)c(=O)c2c1 [Example 211]
IC50: > 100 µM

— patent US12404268B2, “2-heteroaryl aminoquinazolinone derivative” (Sumitomo Pharma Co., Ltd., priority 2020, dated 2025)
